Laboratory results: US5310667A (priority 1989, dated 1994)

Assays:
[1] = target: T1, pMON8186 encoded petunia EPSP synthase variant (glycine (101) to alanine and glycine (144) to aspartic acid) (Petunia hybrida, UniProt P11043, G173A/G216D); test: EPSP synthase kinetic constants (appKi glyphosate, appKm PEP); assay type: biochemical
T1 construct: GGT codon for glycine (144) in the mature petunia EPSP synthase; made in house; host or cells: E. coli SR481
Protocol: The balance of the #215 preculture (~750 μl) was used to inoculate 2 ml of MOPS medium containing 50 μg/ml carbenicillin and was shaken overnight at 37° C. to reach saturation. Plasmid DNA was isolated from an aliquot of the saturated culture using an alkaline lysis procedure. The plasmid was designated pMON8186. An aliquot of the pMON8186 plasmid was used to transform the E. coli host SR481 (described above) and reselected on MOPS medium containing 10 mM glyphosate and 50 μg/ml carbenicillin. A single glyphosate resistant colony of pMON8186 was picked off the selection plate and used to inoculate 3 ml of 2XYT bacterial medium containing 50 μg/ml carbenicillin. The culture was then aerated on rotating wheel at 37° C. until saturated, then it was used to inoculate a larger 500 ml culture. The large culture was grown to saturation by shaking it overnight at 37° C. in a water bath. The bacterial cells were lysed and the extracts were assayed for EPSPS activity.
Specifically, the bacterial cell paste was washed twice with 0.9% saline, suspended in buffer (100 mM Tris-HCl, 5 mM benzamidine HCl) and passed twice through the French Pressure Cell at 1000 psi. The cell extract was separated from the cells by centrifuging at 15,000 x gravity for 10 mins. at 5° C. It was desalted using Sephadex G-50 (Pharmacia, Piscataway, N.J.). The desalted extract was assayed for EPSP synthase activity as follows:
To an assay mix (40 μl) containing shikimate-3-phosphate (2 mM), ^14 C-phosphoenolpyruvate (1 mM, 1.2 mCi/mmol), ammonium molybdate (0.1 mM), potassium fluoride (5 mM) in 50 mM HEPES-KOH, pH 7, was added the extract and incubated at 25° C. for 2 mins. The reaction was quenched by the addition of 50 μl of 50 μl of 90% ethanol/0.1M acetic acid, pH 4.5. […] The radioactivity of the eluent was monitored using a Radiomatic Flo-One Beta Instrument. […] The EPSP synthase activity was determined by measurement of the conversion of ^14 C-PEP to ^14 C-EPSP synthase, both of which are resolved under the above conditions of chromatography. The protein content of the extract was determined by the method of Bradford (Biorad Labs, Calif.). The specific activity of the extract is expressed as nanomoles of EPSP synthase formed/min/mg protein.
Kinetic constants (appKm PEP and appKi glyphosate) were determined for EPSP synthase as described below. Substrate kinetic parameters were determined at pH 7.0 in 50 mM HEPES (N-[2-hydroxyethyl]piperazine-N'-[2-ethanesulfonic acid]) buffer in the presence of 2 mM S3P and varying amounts of ^14 C-PEP (10 μM-400 μM), for 2.0 minutes at 25° C. Reactions were quenched with 100 mM Na Acetate in ethanol, pH 4.5, centrifuged and analyzed for product EPSP formation by HPLC with flow radioactivity detection. […]

[2] = target: T2, variant petunia EPSP synthase with glycine (101) to alanine and glycine (144) to asparagine substitutions (Petunia hybrida, UniProt P11043, G173A/G216N); test: EPSP synthase kinetic constants (Ki glyphosate, Km PEP); assay type: biochemical
T2 construct: GGT codon for glycine (144) in the mature petunia EPSP synthase
T2 sequence (P11043 73-516 G173A/G216N): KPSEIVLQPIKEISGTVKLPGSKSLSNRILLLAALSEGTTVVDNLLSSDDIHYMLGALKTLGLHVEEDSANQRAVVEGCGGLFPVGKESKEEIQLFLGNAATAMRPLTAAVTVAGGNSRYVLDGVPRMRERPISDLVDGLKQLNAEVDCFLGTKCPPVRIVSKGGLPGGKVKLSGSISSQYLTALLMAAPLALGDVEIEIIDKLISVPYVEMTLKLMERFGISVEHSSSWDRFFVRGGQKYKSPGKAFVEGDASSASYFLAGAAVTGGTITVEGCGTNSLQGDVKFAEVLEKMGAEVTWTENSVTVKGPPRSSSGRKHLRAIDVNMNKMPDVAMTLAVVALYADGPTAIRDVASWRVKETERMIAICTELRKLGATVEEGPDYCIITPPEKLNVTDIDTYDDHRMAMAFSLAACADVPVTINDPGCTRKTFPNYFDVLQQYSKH
Protocol: (§1) Kinetic constants (appKm PEP and appKi glyphosate) were determined for EPSP synthase as described below. Substrate kinetic parameters were determined at pH 7.0 in 50 mM HEPES (N-[2-hydroxyethyl]piperazine-N'-[2-ethanesulfonic acid]) buffer in the presence of 2 mM S3P and varying amounts of ^14 C-PEP (10 μM-400 μM), for 2.0 minutes at 25° C. Reactions were quenched with 100 mM Na Acetate in ethanol, pH 4.5, centrifuged and analyzed for product EPSP formation by HPLC with flow radioactivity detection. HPLC conditions were 0.35 MKPi, pH 6.5, on a Synchropak AX100 column at 1.0 ml/min.

[3] = target: T3, petunia EPSP synthase glycine (101) to alanine variant (Petunia hybrida, UniProt P11043, G173A); test: EPSP synthase kinetic constants (appKi glyphosate, appKm PEP); assay type: biochemical; conditions: relative to wild type
T3 construct: made in house; host or cells: E. coli
T3 sequence (P11043 73-516 G173A): as the sequence (P11043 73-516 G173A/G216N) above, with N144G counted along it
Protocol: To an assay mix (40 μl) containing shikimate-3-phosphate (2 mM), ^14 C-phosphoenolpyruvate (1 mM, 1.2 mCi/mmol), ammonium molybdate (0.1 mM), potassium fluoride (5 mM) in 50 mM HEPES-KOH, pH 7, was added the extract and incubated at 25° C. for 2 mins. The reaction was quenched by the addition of 50 μl of 50 μl of 90% ethanol/0.1M acetic acid, pH 4.5. 70 μl of the reaction mixture was loaded on a SynchroPak AX100 HPLC column (0.4×25 cm) and the column was eluted with 0.5M potassium phosphate, pH 5.5 at 1 ml/min. The radioactivity of the eluent was monitored using a Radiomatic Flo-One Beta Instrument. (Radiomatics, Fla.). The EPSP synthase activity was determined by measurement of the conversion of ^14 C-PEP to ^14 C-EPSP synthase, both of which are resolved under the above conditions of chromatography. The protein content of the extract was determined by the method of Bradford (Biorad Labs, Calif.). The specific activity of the extract is expressed as nanomoles of EPSP synthase formed/min/mg protein.
as §1

[4] = substrate: C=C(OP(=O)(O)O)C(=O)O; test: purified protein, by the assay type; conditions: 25.0 °C

T1 sequence (P11043 73-516 G173A/G216D): as the sequence (P11043 73-516 G173A/G216N) above, with N144D counted along it

Q: What does the source list for C=C(OP(=O)(O)O)C(=O)O [PEP, phosphoenolpyruvate]?
A: Km for PEP [1]: 40 µM; Km for PEP relative to the glycine (101) to alanine variant [1]: more than four fold lower; Km for PEP [2]: 91 µM

Q: With O=C(O)C1=C[C@@H](OP(=O)(O)O)[C@@H](O)[C@H](O)C1 [S3P, shikimate-3-phosphate] as the molecule, how does the “binding constant for shikimate-3-phosphate (S3P)” value [3] read?
A: Its value is “not affected”.

B1: wild type petunia EPSP synthase (Petunia x hybrida) (protein)
chain: KPSEIVLQPIKEISGTVKLPGSKSLSNRILLLAALSEGTTVVDNLLSSDDIHYMLGALKTLGLHVEEDSANQRAVVEGCGGLFPVGKESKEEIQLFLGNAGTAMRPLTAAVTVAGGNSRYVLDGVPRMRERPISDLVDGLKQLGAEVDCFLGTKCPPVRIVSKGGLPGGKVKLSGSISSQYLTALLMAAPLALGDVEIEIIDKLISVPYVEMTLKLMERFGISVEHSSSWDRFFVRGGQKYKSPGKAFVEGDASSASYFLAGAAVTGGTITVEGCGTNSLQGDVKFAEVLEKMGAEVTWTENSVTVKGPPRSSSGRKHLRAIDVNMNKMPDVAMTLAVVALYADGPTAIRDVASWRVKETERMIAICTELRKLGATVEEGPDYCIITPPEKLNVTDIDTYDDHRMAMAFSLAACADVPVTINDPGCTRKTFPNYFDVLQQYSKH
Q: With B1 as the molecule, how does the Km [4] read?
A: The Km was 5.2 µM.
